The target in test [1] is PP6 holoenzyme (Homo sapiens, UniProt O00743). The following applies: 100 uM DiFMUP; pH 7.4, 30 C; Mg2+ from enzyme buffer.
For test [2], the target named is PP4 holoenzyme (Homo sapiens, UniProt P60510). The following applies: 100 uM DiFMUP; pH 7.4, 30 C; Mg2+ from enzyme buffer.
Sequence of PP4 holoenzyme (P60510 2-307): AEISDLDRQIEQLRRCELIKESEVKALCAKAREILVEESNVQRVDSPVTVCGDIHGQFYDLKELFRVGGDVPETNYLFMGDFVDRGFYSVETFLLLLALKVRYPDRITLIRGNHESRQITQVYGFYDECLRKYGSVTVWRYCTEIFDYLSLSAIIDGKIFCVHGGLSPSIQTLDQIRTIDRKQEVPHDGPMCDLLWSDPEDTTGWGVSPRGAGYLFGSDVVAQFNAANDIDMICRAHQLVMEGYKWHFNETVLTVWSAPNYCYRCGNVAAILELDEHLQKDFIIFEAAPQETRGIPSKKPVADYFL
Sequence of PP4 holoenzyme (Q9NY27 whole entry partner): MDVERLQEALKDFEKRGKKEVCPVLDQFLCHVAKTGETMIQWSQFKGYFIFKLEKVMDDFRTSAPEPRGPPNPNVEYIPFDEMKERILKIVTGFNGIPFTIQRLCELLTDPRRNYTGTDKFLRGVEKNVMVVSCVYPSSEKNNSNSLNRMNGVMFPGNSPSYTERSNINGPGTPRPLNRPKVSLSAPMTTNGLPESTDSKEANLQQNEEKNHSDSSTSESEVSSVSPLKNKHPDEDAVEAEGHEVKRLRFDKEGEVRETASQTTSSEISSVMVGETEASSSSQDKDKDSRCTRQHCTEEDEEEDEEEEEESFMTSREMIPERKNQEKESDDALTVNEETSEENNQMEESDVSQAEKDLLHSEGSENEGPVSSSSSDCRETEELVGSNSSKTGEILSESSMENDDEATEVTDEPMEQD
Sequence of PP4 holoenzyme (Q6IN85 whole entry partner): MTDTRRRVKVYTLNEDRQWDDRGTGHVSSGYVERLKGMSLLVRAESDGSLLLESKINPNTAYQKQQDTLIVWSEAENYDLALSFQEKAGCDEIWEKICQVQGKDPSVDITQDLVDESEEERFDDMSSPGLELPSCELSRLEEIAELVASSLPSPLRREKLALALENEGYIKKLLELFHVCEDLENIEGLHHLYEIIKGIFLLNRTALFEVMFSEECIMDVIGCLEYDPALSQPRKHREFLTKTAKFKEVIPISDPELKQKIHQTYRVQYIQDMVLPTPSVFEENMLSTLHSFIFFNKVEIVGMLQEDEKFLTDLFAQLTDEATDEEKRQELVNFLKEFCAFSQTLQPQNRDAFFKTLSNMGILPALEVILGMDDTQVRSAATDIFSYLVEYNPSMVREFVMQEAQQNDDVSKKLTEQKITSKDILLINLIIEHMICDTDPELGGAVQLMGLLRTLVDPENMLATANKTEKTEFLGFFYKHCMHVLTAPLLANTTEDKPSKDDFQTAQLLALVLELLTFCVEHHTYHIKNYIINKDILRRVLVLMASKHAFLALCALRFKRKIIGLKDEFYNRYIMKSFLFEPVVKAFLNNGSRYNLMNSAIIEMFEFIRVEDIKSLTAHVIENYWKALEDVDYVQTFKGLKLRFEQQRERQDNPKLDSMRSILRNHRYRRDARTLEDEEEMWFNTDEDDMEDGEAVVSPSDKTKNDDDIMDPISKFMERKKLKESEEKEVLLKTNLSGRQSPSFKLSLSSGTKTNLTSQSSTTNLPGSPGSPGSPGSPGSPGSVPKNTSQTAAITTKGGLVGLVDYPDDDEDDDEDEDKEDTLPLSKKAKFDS

Sequence of PP6 holoenzyme (O00743 whole entry): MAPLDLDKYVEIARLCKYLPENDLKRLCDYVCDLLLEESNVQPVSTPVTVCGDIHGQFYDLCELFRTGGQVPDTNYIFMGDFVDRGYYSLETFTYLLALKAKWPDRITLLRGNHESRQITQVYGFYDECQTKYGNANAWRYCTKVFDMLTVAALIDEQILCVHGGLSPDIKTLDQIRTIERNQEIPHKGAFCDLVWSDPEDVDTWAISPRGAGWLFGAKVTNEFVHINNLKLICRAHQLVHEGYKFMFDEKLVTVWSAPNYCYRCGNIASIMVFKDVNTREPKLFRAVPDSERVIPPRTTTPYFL
Sequence of PP6 holoenzyme (Q9UPN7 whole entry partner): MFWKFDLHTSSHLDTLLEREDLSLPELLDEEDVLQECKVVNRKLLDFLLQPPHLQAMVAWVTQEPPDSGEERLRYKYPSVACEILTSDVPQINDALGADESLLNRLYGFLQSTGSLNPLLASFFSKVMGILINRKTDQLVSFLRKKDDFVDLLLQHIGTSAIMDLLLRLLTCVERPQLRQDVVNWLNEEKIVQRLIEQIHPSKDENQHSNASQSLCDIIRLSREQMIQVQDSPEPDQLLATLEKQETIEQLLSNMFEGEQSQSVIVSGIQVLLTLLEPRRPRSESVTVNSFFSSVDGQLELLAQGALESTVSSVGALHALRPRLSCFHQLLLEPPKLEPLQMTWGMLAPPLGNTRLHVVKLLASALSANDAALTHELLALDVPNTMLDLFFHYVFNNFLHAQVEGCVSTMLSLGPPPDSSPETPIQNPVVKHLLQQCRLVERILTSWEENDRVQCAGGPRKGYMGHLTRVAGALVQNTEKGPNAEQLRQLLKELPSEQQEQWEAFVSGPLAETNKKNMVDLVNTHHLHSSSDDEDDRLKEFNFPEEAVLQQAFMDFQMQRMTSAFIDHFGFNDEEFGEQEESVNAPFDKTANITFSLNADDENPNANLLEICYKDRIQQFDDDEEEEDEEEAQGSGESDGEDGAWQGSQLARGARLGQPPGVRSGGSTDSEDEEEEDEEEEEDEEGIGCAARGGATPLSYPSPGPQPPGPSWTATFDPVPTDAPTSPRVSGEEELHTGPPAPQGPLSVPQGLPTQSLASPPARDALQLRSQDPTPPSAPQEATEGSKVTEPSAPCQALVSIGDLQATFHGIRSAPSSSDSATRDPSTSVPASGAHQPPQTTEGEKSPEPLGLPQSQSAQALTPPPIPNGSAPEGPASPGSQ
Sequence of PP6 holoenzyme (O15084 whole entry partner): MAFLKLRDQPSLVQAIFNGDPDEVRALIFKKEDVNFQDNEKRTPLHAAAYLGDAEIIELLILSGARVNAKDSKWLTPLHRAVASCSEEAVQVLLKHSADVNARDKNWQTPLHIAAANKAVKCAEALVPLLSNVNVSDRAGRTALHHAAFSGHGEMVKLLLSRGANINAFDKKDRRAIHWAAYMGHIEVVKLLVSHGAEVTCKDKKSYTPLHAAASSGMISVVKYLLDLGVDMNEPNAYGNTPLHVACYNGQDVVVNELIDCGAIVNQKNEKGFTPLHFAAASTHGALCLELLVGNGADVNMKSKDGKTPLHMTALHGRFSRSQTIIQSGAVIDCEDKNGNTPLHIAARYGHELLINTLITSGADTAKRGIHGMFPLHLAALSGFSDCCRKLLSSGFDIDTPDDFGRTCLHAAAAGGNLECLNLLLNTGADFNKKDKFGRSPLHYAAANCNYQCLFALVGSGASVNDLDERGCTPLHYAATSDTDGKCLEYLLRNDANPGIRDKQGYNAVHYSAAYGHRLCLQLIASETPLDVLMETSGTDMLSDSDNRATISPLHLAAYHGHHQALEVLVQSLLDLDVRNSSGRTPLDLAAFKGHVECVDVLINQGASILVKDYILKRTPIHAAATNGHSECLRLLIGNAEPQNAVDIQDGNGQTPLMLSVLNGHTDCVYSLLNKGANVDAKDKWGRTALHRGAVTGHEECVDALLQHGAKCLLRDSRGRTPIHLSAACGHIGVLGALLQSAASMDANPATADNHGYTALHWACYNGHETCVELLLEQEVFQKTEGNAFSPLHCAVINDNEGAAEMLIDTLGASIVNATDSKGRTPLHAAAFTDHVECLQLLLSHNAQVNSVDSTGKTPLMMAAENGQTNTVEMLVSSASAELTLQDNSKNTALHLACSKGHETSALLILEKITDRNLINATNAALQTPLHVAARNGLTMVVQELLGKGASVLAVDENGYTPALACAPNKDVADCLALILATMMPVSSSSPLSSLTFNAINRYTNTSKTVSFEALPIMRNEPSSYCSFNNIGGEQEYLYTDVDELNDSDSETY

As for `Cc1cc(=O)oc2c(F)c(OP(=O)(O)O)c(F)cc12` [DiFMUP], the fluorescence dephosphorylation assay result is “DiFMUP dephosphorylation assay measuring the activity of purified PP6 holoenzyme” in test [1]; “mixing purified PP4 and PP6 holoenzymes” in test [2].

These data come from paper PMC11844454 (bioRxiv, 2025).
